The values below come from patent US20220281825A1 (priority 2016, published 2022).

A value given as a limit tells only on which side of the number the result lay.

One data set has as its system MACV-p. The experiment in a line: organism not typed. The settings on record: Vero, 24 h, read-out: MACV-p EC50 (nM). The format is cell-based, Machupo (MACV).
A further data set concerns LASV-p. The experiment in a line: organism not typed. The data set is classed as cell-based, Lassa (LASV). The settings on record: Vero, 24 h, read-out: LASV-p EC50 (nM).
Another data set concerns JUNV-p. The experiment in a line: organism not typed. The format is cell-based, Junin (JUNV). To be noted: Vero, 24 h, read-out: JUNV-p EC50 (nM).
For a further data set, the system named is TCRV-p. The experiment in a line: organism not typed. The settings on record: Vero, 24 h, read-out: TCRV-p EC50 (nM). The format is cell-based.
The nature of a further data set: in vitro. The settings on record: African green monkey.
The next data set relates to VSV-p. The experiment in a line: microbe, parasite or virus in culture. The data set is classed as cell-based. To be noted: Vesicular stomatitis virus, Vero, 24 h, read-out: VSV-p EC50 (nM).
The subject of a further data set is GTOV-p. In words: organism not typed. The data set is classed as cell-based, Guanarito (GTOV). The settings on record: Vero, 24 h, read-out: GTOV-p EC50 (nM).

By EC50 is commonly meant the midpoint of the concentration-response curve. For the compound `COc1ccc(-n2cnc3ccc(-c4ccc(N(C)C)cc4)cc32)cc1` [Example A7, 4-[1-(4-methoxyphenyl)-1H-1,3-benzodiazol-6-yl]-N,N-dimethylaniline], the EC50 in the data set on MACV-p is 17 nM; with LASV-p, 8.9 nM; in the data set on JUNV-p, 1.8 nM; in the data set with TCRV-p, over 25 nM; with VSV-p, 980 nM. The CC50 in the data set “in vitro” was determined as 3960 nM.
As for `COc1ccc(-n2cnc3ccc(-c4ccc(C(C)(C)O)cc4)cc32)cc1` [Example A8, 2-{4-[1-(4-methoxyphenyl)-1H-1,3-benzodiazol-6-yl]phenyl}propan-2-ol], the EC50 was 22.3 nM with MACV-p; 6.4 nM with LASV-p; 3.98 nM with JUNV-p; 21.7 nM with TCRV-p; over 1000 nM in the data set on VSV-p. Also, the CC50 in “in vitro” was determined as 9540 nM.
As for `COc1ccc(-n2cnc3ccc(-c4ccc5[nH]ccc5c4)cc32)cc1` [Example A12, 6-(1H-indol-5-yl)-1-(4-methoxyphenyl)-1H-1,3-benzodiazole], the half-maximal effective concentration (EC50) in the data set with MACV-p is over 25 nM; with LASV-p, 0.81 nM; in the data set with JUNV-p, 19.3 nM; in the data set with TCRV-p, 21.4 nM; with VSV-p it was 800 nM. In “in vitro”, the CC50 was 200 nM.
Take `COc1ccc(-n2cnc3ccc(-c4ccc(N5CCOCC5)cc4)cc32)cc1` [Example A16, 1-(4-methoxyphenyl)-6-[4-(morpholin-4-yl)phenyl]-1H-1,3-benzodiazole]: the 50% effective concentration (EC50) is over 25 nM in the data set with MACV-p; 17.2 nM with LASV-p; 15.3 nM with JUNV-p; over 25 nM in the data set with TCRV-p; over 1000 nM with VSV-p. In addition, the CC50 in “in vitro” was over 100000 nM.
As to `CC(C)Oc1ccc(-n2cnc3ccc(-c4ccc(N(C)C)cc4)cc32)cc1` [Example A18, N,N-dimethyl-4-{1-[4-(propan-2-yloxy)phenyl]-1H-1,3-benzodiazol-6-yl}aniline], the EC50 in the data set on MACV-p was 2.27 nM; in the data set with LASV-p, 1.08 nM; in the data set with JUNV-p it was 1.55 nM; in the data set on GTOV-p, 0.07 nM; with TCRV-p it was 12.5 nM; in the data set with VSV-p, over 1000 nM. For the same compound, in “in vitro”, the CC50 turned out to be 14000 nM.
As for `CC(=O)c1ccc(-c2ccc3ncn(-c4ccc(OC(C)C)cc4)c3c2)cc1` [Example A26, 1-(4-{1-[4-(propan-2-yloxy)phenyl]-1H-1,3-benzodiazol-6-yl}phenyl)ethan-1-one], the EC50 with MACV-p worked out at 0.7 nM; with LASV-p it was 0.59 nM; with JUNV-p, 0.81 nM; in the data set with GTOV-p, 0.73 nM; in the data set with TCRV-p, 1.45 nM. Besides, in the data set “in vitro”, the CC50 was determined as 7520 nM.
Consider `CC(C)Oc1ccc(-n2cnc3ccc(-c4ccc(C(C)(C)O)cc4)nc32)cc1` [Example B1, 2-(4-{3-[4-(propan-2-yloxy)phenyl]-3H-imidazo[4,5-b]pyridin-5-yl}phenyl)propan-2-ol], for which the EC50 is 7.09 nM in the data set on MACV-p; 1.61 nM in the data set with LASV-p; 4.95 nM in the data set with JUNV-p; 0.88 nM in the data set on GTOV-p; 28 nM with TCRV-p; over 1000 nM with VSV-p. The compound further returned a CC50 in “in vitro” of 12200 nM.
As to `CC(C)Oc1ccc(-n2nnc3ccc(-c4ccc5[nH]ccc5c4)cc32)cc1` [Example B13, 6-(1H-indol-5-yl)-1-[4-(propan-2-yloxy)phenyl]-1H-1,2,3-benzotriazole], the half-maximal effective concentration (EC50) in the data set on MACV-p came to 5.58 nM; with LASV-p, 1.53 nM; in the data set with JUNV-p, 1.8 nM; in the data set with GTOV-p it was 1.24 nM; in the data set on TCRV-p, 20.4 nM; in the data set with VSV-p, 5360 nM. This compound also registered a CC50 in the data set “in vitro” of 6620 nM.
`CC(C)Oc1ccc(-c2cnc3ccc(-c4ccc(C5(O)CCC5)cc4)cn23)cc1` [Example C9, 1-(4-{3-[4-(propan-2-yloxy)phenyl]imidazo[1,2-a]pyridin-6-yl}phenyl)cyclobutan-1-ol]: the 50% effective concentration (EC50) in the data set on MACV-p came to 0.71 nM; with LASV-p it was 1.15 nM; in the data set with JUNV-p, 0.45 nM; in the data set on GTOV-p it was 0.27 nM; in the data set with TCRV-p it was 1.7 nM; in the data set on VSV-p, 5810 nM. Moreover, in the data set “in vitro”, the CC50 worked out at 3970 nM.
Consider `CC(C)Oc1ccc(-c2cnc3ccc(-c4ccc5cc[nH]c5c4)cn23)cc1` [Example C11, 6-{3-[4-(propan-2-yloxy)phenyl]imidazo[1,2-a]pyridin-6-yl}-1H-indole], for which the half-maximal effective concentration (EC50) in the data set on MACV-p is 10 nM; with LASV-p, 2.83 nM; with JUNV-p it was 3.21 nM; with GTOV-p, 0.86 nM; in the data set on TCRV-p, 18.4 nM; with VSV-p it was 3090 nM. In the data set “in vitro”, this compound displayed a CC50 of 25200 nM.
Consider `CC(C)Oc1ccc(-c2cnc3ccc(-c4ccc5c(ccn5C)c4)cn23)cc1` [Example C22, 1-methyl-5-{3-[4-(propan-2-yloxy)phenyl]imidazo[1,2-a]pyridin-6-yl}-1H-indole], for which the concentration for a half-maximal effect (EC50) in the data set with MACV-p stood at 0.335 nM; in the data set on LASV-p, 2.33 nM; in the data set with JUNV-p, 0.415 nM; with GTOV-p, 0.45 nM; in the data set on TCRV-p it was 4.94 nM. Further, in “in vitro”, the CC50 came out at 24400 nM.
In the case of `CC(C)Oc1ccc(-c2cnc3ccc(-c4ccc(OC(C)C)c(F)c4)cn23)cc1` [Example C24, 6-[3-fluoro-4-(propan-2-yloxy)phenyl]-3-[4-(propan-2-yloxy)phenyl]imidazo[1,2-a]pyridine], the 50% effective concentration (EC50) in the data set on MACV-p is 0.875 nM; in the data set on LASV-p, 4.58 nM; in the data set on JUNV-p, 0.416 nM; with GTOV-p, 0.15 nM; in the data set on TCRV-p, 3.91 nM; in the data set on VSV-p, 9810 nM. The same compound yielded a CC50 in the data set “in vitro” of 4180 nM.
As to `CC(C)Oc1ccc(-c2cnc3ccc(-c4ccc(C5(O)CC5)cc4)cn23)cc1` [Example C27, 1-(4-{3-[4-(propan-2-yloxy)phenyl]imidazo[1,2-a]pyridin-6-yl}phenyl)cyclopropan-1-ol], the EC50 is 0.68 nM in the data set on MACV-p; 0.66 nM in the data set on LASV-p; 0.51 nM in the data set on JUNV-p; 0.24 nM with GTOV-p; 0.58 nM in the data set with TCRV-p; over 10000 nM with VSV-p. In “in vitro”, this compound gave a CC50 of 5280 nM.
Regarding `CC(C)Oc1ccc(-c2ccc3ncc(-c4ccc(C5CC5)cc4)n3c2)cc1` [Example C30, 3-(4-cyclopropylphenyl)-6-[4-(propan-2-yloxy)phenyl]imidazo[1,2-a]pyridine], the EC50 in the data set on MACV-p came out at 1.08 nM; in the data set on LASV-p it was 1.02 nM; with JUNV-p it was 0.82 nM; with GTOV-p, 0.05 nM; in the data set on TCRV-p, 3.83 nM; in the data set on VSV-p, 6960 nM. The compound further registered a CC50 in “in vitro” of 3980 nM.
As to `CC(C)Oc1ccc(-c2ccc3ncc(-c4ccc(OCC5CC5)cc4)n3c2)cc1` [Example C33, 3-[4-(cyclopropylmethoxy)phenyl]-6-[4-(propan-2-yloxy)phenyl]imidazo[1,2a]pyridine], the concentration for a half-maximal effect (EC50) in the data set with MACV-p is 5.31 nM; with LASV-p, 1.3 nM; in the data set with JUNV-p, 2.3 nM; in the data set with GTOV-p, 0.91 nM; in the data set with TCRV-p, 6.57 nM; in the data set on VSV-p it was 4770 nM. This compound gave a CC50 in the data set “in vitro” of 4770 nM.
With `CC(C)Oc1ccc(-c2ccc3ncc(-c4ccc(C(C)(C)O)cc4)n3c2)cc1` [Example C38, 2-(4-{6-[4-(propan-2-yloxy)phenyl]imidazo[1,2-a]pyridin-3-yl}phenyl)propan-2-ol], the EC50 with LASV-p worked out at 0.84 nM; with GTOV-p, 0.2 nM; in the data set on TCRV-p, 1.77 nM.
With `CC(C)Oc1ccc(-c2ccc3ncc(-c4ccc(OC(F)F)cc4)n3c2)cc1` [Example C40, 3-[4-(difluoromethoxy)phenyl]-6-[4-(propan-2-yloxy)phenyl]imidazo[1,2a]pyridine], the 50% effective concentration (EC50) in the data set with MACV-p is 5.85 nM; in the data set on LASV-p, 3.83 nM; with JUNV-p, 0.97 nM; with GTOV-p, 1.35 nM; in the data set with TCRV-p it was 22.6 nM; with VSV-p, 6170 nM. In the data set “in vitro”, this compound yielded a CC50 of 4110 nM.
`c1cc(-c2ccc3ncc(-c4ccc(OC5CC5)cc4)n3c2)ccc1OC1CC1` [Example C46, 3,6-bis(4-cyclopropoxyphenyl)imidazo[1,2-a]pyridine]: the EC50 is 8.47 nM in the data set on MACV-p; 7.23 nM with LASV-p; 4.42 nM in the data set on JUNV-p; 1.26 nM in the data set on GTOV-p; 22.5 nM with TCRV-p; 4550 nM with VSV-p. In addition, the CC50 in “in vitro” came to 4610 nM.
In the case of `CC(C)Oc1ccc(-c2cnc3ncc(-c4ccc5[nH]ccc5c4)n3c2)cc1` [Example D16, 5-{6-[4-(propan-2-yloxy)phenyl]imidazo[1,2-a]pyrimidin-3-yl}-1H-indole], the EC50 was found to be 19.1 nM with MACV-p; 5.37 nM in the data set with LASV-p; 1.05 nM with JUNV-p; 3.52 nM in the data set with GTOV-p; 19.9 nM in the data set on TCRV-p. The compound further showed a CC50 in the data set “in vitro” of 7530 nM.
`CC(C)Oc1ccc(-c2ccc3nc(C(N)=O)c(-c4ccc(OC(C)C)cc4)n3c2)cc1` [Example D22, 3,6-bis[4-(propan-2-yloxy)phenyl]imidazo[1,2-a]pyridine-2-carboxamide]: the concentration for a half-maximal effect (EC50) with MACV-p, in the data set on LASV-p, with JUNV-p and in the data set on TCRV-p was over 25 nM in each case. In addition, the CC50 in “in vitro” amounted to 49500 nM.
Take `CC(C)Oc1ccc(-c2ccc3nc(C#N)c(-c4ccc(OC(C)C)cc4)n3c2)cc1` [Example D23, 3,6-bis[4-(propan-2-yloxy)phenyl]imidazo[1,2-a]pyridine-2-carbonitrile]: the EC50 in the data set on MACV-p is over 25 nM; in the data set with LASV-p it was 27.4 nM; in the data set with JUNV-p it was 3.78 nM; in the data set with TCRV-p it was over 25 nM. In addition, in “in vitro”, the CC50 was over 100000 nM.
